From patent publication US20240269112A1 (priority 2020, published 2024)

Assays:
[1] = test system: septic patients who have undergone abdominal surgery; experiment: Clinical study with septic patients: blood parameters (leukocytes, red blood cells, hemoglobin, hematocrit, neutrophils, lymphocytes, platelets); conditions: regardless of time, p=0.007
Protocol: The following blood parameters from these samples were analyzed for each of the participating patients: the number of leukocytes, the number of red blood cells, hemoglobin, hematocrit, percentage of neutrophils, percentage of lymphocytes, and the number of platelets.

[2] = test system: septic patients who have undergone abdominal surgery; conditions: human, in vivo
[3] = test system: septic patients who have undergone abdominal surgery; conditions: human, in vivo; remark: listed apart in the source
Text: The following parameters related to kidney function have been determined: • Creatinine is a waste molecule generated from muscle metabolism. Creatinine originates from creatine, a very important molecule for energy production in the muscle. About 2% of creatine in the body is converted into creatinine every day. Creatinine is transported from muscles to the kidney by blood. The kidneys filter most of the creatinine and eliminate it in the urine. Determination of serum creatinine is a test which provides a fairly reliable indication of the state of kidney function. • Urea, the determination of which is the most widely used test to assess kidney function. Urea is the end product of protein and amino acid metabolism. In protein degradation, proteins are split into amino acids and deaminated. Urea is synthesized in the liver with the ammonia that is formed. This is the most important pathway for degrading excess nitrogen in the human body.

[4] = test system: Covid-19 patients admitted to the ICU; experiment: Efficacy and safety of IV melatonin in Covid-19 patients admitted to the ICU: hospital/ICU stay, mechanical ventilation, adverse reactions; format: in vivo, human
Protocol: (§1) To conduct this study, all patients received standard treatment according to institutional protocols. Furthermore, patients were assigned randomly in a 2:1 ratio to receive: • Experimental group (12 patients): 7 days of 5 mg/kg body weight/day of intravenous melatonin every 6 hours. Daily maximum dose of 500 mg a day. • Control group (6 patients): 7 days of 5 mg/kg body weight/day of placebo with identical appearance through the intravenous route every 6 hours.
(§2) After 3 days of treatment, 3 intensive care physicians evaluated each participant and decided whether or not they wished to complete the treatment based on their clinical assessment: • If there were objective or subjective signs of improvement or non-worsening of general clinical condition or respiratory failure, with no observation of inflammatory condition or multiorgan failure, the participant continued treatment until completion. • If an adverse effect or clinical deterioration which can be objectively or subjectively attributed to the study drug was observed, treatment was discontinued.
(§3) The injectable composition was prepared according to the criteria established in Example 1 by adjusting the amounts to 5 mg/kg body weight/day of intravenous melatonin every 6 hours.
(§4) • To evaluate whether iv treatment with melatonin reduced the duration of ICU (intensive care unit) admission. • To evaluate whether iv treatment with melatonin reduced the duration of mechanical ventilation (MV). • To evaluate whether iv treatment with melatonin was associated with an increase in MV-free days. • To evaluate whether iv treatment with melatonin is associated with a reduction in systemic inflammatory response, defined by the levels of ferritin, D-dimer, C-reactive protein (CRP) or procalcitonin (PCT) and IL-6. 1. Evaluating Whether iv Treatment with Melatonin Reduced the Duration of ICU (Intensive Care Unit) Admission (See FIG. 7)

[5] = test system: septic patients who have undergone abdominal surgery; conditions: human, in vivo; remark: listed apart in the source
Text: The enzyme lactate dehydrogenase (or also called “lactic acid dehydrogenase” (LDH)), an enzyme which is found in almost all the tissues in the human body, has been determined to detect injuries in tissues such as the liver. It plays an important role in cellular respiration (the process in which glucose from foods is converted into energy which can be used by cells).
Although LDH is abundant in tissue cells, the levels in blood are generally low. However, when tissues are damaged as a result of an injury or a disease, they release more LDH into the blood stream. This increase in the amount of LDH in the blood stream is often caused by the following conditions: liver diseases, heart attacks, anemia, muscle trauma, bone fracture, cancer, infections such as meningitis, encephalitis, or HIV.

[6] = test system: Covid-19 patients admitted to the ICU; experiment: IV melatonin in Covid-19 ICU patients: systemic inflammatory response (ferritin, D-dimer, CRP, IL-6, lymphocytes); format: in vivo, human
Protocol: as §1, §2, §3, §4

[7] = 5 mg/kg/day iv every 6 hours, 7 days

## COc1ccc2[nH]cc(CCNC(C)=O)c2c1 [melatonin, N-acetyl-5-methoxytryptamine]
[1]
  Neutrophil average, group A compared with group B (placebo): higher in group B (placebo) than in group A (melatonin)
[2]
  ALP (alkaline phosphatase): average values between groups: not statistically significant
  GGT: average values between groups: not statistically significant
  GOT: differences in average values between groups: not statistically significant
  GPT: average values between groups: not statistically significant
[3]
  Levels of creatinine compared between groups A and B in each time point: no statistically significant differences
  Levels of urea compared between the two groups in each time point: higher in group B (placebo)
[4]; 5 mg/kg/day for 7 days
  Adverse reactions: did not cause any adverse reactions
  Increase in the number of days without mechanical ventilation compared to placebo: 16 days
  Reduction in invasive mechanical ventilation compared to placebo: 9 days
[4]; [7]
  Days without mechanical ventilation during hospitalization (MV-free days): 40 days
  Duration of ICU admission compared to placebo: no significant difference
  Duration of invasive mechanical ventilation: 21 days
  Duration of non-invasive mechanical ventilation: 16.5 days
  Reduction in hospital stay compared to placebo: 15 days
[5]
  Levels of LDH compared between the two groups in each time point: higher in group A (melatonin)
[6]; 5 mg/kg/day for 7 days
  Inflammatory response: improvement in the inflammatory response
[6]; during the days of treatment, FIG. 2
  Levels of dimer-D (D-dimer): reduction
[6]; during the days of treatment, FIG. 3
  Levels of ferritin: reduction
[6]; during the days of treatment, FIG. 4
  Levels of CRP: reduction
[6]; during the days of treatment, FIG. 5
  IL6: reduction
[6]; during treatment
  Bilirubin: has to drop
  Neutrophils: tendency of neutrophils decreasing
[6]; during treatment, FIG. 6
  Lymphocytes with respect to placebo: increase
